# According to PMC3479135, “Crystal Structures of Bovine CD1d Reveal Altered αGalCer Presentation and a Restricted A’ Pocket Unable to Bind Long-Chain Glycolipids” (PLoS ONE, 2012):
# Target: T1, boCD1d (bovine CD1d ectodomain with boβ2M) (Bos taurus, UniProt A1L565)
# T1 construct: heavy-chain ectodomain (α1-α3), endogenous leader replaced by boCD1b3 leader, C-terminal hexa-His tag, no Fc; co-expressed with bovine β2m in baculovirus/insect cells; non-covalent heterodimer; N-glycosylated at Asn20 and Asn42; with Beta-2-microglobulin
# T1 sequence (A1L565 129-405): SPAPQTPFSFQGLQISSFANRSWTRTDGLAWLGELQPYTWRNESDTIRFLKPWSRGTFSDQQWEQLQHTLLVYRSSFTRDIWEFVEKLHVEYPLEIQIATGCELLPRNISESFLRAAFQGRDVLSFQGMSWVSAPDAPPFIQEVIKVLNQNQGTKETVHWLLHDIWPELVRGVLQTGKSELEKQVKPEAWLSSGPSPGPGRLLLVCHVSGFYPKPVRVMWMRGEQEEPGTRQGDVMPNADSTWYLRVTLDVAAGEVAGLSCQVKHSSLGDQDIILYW
# T1 sequence (P01888 21-118 partner): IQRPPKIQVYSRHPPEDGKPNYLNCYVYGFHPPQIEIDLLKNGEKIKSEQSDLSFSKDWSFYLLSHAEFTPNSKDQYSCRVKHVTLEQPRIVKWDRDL
# Assay: X-ray crystal structure, […] Å; native IEF gel shift
# Format: binding
# Details: crystallised in 20% PEG 3350, 0.2 M sodium formate; IEF loading overnight at room temperature, 100 mM Tris-HCl pH 7, no Tween 20; A' and F' pockets
compound,measurement,value
"CCCCCCCCCCCCC/C=C/[C@@H](O)[C@H](CO[C@@H]1O[C@H](COS(=O)(=O)O)[C@H](O)[C@H](OS(=O)(=O)O)[C@H]1O)NC(=O)CCCCCCCCCCC [compound 2, C12∶0-di-sulfatide]","X-ray crystal structure, 2.9 Å; native IEF gel shift",we crystallized boCD1d in complex with synthetic C12∶0-di-sulfatide (di-SLF)
